Experimental findings from patent US9556201B2, “Bicyclic pyridines and analogs as sirtuin modulators” (GLAXOSMITHKLINE LLC, priority 2009, dated 2017) are described below.

This test has as its target T1, SIRT1 (Homo sapiens, UniProt Q96EB6).
T1 sequence (Q96EB6 1-747): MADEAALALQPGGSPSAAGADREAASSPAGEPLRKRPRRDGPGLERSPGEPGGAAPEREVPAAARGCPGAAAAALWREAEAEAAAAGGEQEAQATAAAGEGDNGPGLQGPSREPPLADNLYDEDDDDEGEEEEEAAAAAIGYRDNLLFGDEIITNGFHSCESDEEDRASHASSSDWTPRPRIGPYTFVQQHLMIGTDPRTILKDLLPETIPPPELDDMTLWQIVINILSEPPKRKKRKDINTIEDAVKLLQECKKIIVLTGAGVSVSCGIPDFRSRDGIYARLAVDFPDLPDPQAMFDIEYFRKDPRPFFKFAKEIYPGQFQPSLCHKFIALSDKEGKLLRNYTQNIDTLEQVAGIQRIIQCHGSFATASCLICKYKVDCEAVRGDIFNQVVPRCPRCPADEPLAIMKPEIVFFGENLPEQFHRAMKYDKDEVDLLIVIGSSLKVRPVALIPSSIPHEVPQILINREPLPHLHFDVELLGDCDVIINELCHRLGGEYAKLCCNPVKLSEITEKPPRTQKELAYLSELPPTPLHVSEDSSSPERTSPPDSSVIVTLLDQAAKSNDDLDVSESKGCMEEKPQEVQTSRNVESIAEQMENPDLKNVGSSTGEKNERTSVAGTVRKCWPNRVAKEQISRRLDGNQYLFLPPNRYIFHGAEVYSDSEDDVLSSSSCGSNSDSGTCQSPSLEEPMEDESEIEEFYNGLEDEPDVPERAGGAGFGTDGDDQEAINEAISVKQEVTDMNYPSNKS
Briefly: Mass spectrometry based assay to identify modulators of SIRT1 activity (deacetylation of p53-based acetylated peptide substrate). In kind it is biochemical. The settings on record: for Emax: 25 min, read-out: % FOLD ACT. (percent maximum fold activation); for Emax / EC1.5: SIRT1 activation. The source says:
A mass spectrometry based assay was used to identify modulators of SIRT1 activity. The mass spectrometry based assay utilizes a peptide having 20 amino acid residues as follows: Ac-EE-K(biotin)-GQSTSSHSK(Ac)NleSTEG-K(5TMR)-EE-NH2 (SEQ ID NO: 1) wherein K(Ac) is an acetylated lysine residue and Nle is a norleucine. The peptide is labeled with the fluorophore 5TMR (excitation 540 nm/emission 580 nm) at the C-terminus. The sequence of the peptide substrate is based on p53 with several modifications. In addition, the methionine residue naturally present in the sequence was replaced with the norleucine because the methionine may be susceptible to oxidation during synthesis and purification.
The mass spectrometry assay is conducted as follows: […] peptide substrate and 120 μM βNAD^+ is incubated with 10 nM SIRT1 for 25 minutes at 25° C. in a reaction buffer (50 mM Tris-acetate pH 8, 137 mM NaCl, 2.7 mM KCl, 1 mM MgCl2, 5 mM DTT, 0.05% BSA). Test compounds may be added to the reaction as described above. The SirT1 gene is cloned into a T7-promoter containing vector and transformed into BL21(DE3). After the 25 minute incubation with SIRT1, 10 μL of 10% formic acid is added to stop the reaction. Reactions are sealed and frozen for later mass spec analysis. Determination of the mass of the substrate peptide allows for precise determination of the degree of acetylation (i.e. starting material) as compared to deacetylated peptide (product).
A control for inhibition of sirtuin activity is conducted by adding 1 μL of 500 mM nicotinamide as a negative control at the start of the reaction (e.g., permits determination of maximum sirtuin inhibition). A control for activation of sirtuin activity is conducted using 10 nM of sirtuin protein, with 1 μL of DMSO in place of compound, to determine the amount of deacetylation of the substrate at a given timepoint within the linear range of the assay. This timepoint is the same as that used for test compounds and, within the linear range, the endpoint represents a change in velocity.
For the above assay, SIRT1 protein was expressed and purified as follows. The SirT1 gene was cloned into a T7-promoter containing vector and transformed into BL21(DE3). The protein was expressed by induction with 1 mM IPTG as an N-terminal His-tag fusion protein at 18° C. overnight and harvested at 30,000×g. Cells were lysed with lysozyme in lysis buffer (50 mM Tris-HCl, 2 mM Tris[2-carboxyethyl]phosphine (TCEP), 10 μM ZnCl2, 200 mM NaCl) and further treated with sonication for 10 min for complete lysis. The protein was purified over a Ni-NTA column (Amersham) and fractions containing pure protein were pooled, concentrated and run over a sizing column (Sephadex S200 26/60 global). The peak containing soluble protein was collected and run on an Ion-exchange column (MonoQ). Gradient elution (200 mM-500 mM NaCl) yielded pure protein. This protein was concentrated and dialyzed against dialysis buffer (20 mM Tris-HCl, 2 mM TCEP) overnight. The protein was aliquoted and frozen at −80° C. until further use.

On to `CCN1CCCN(C(=O)Nc2ccc(F)cn2)c2nc(-c3cccc(Cl)c3)ccc21` [Compound 807], for which the EC1.5 (concentration giving 1.5-fold activation) is above 25 µM and the Emax is at most 200%.

For `O=C(Nc1ccncc1)N1CCOc2cnc(-c3cccc(C(F)(F)F)c3)nc21` [Compound 715], the EC1.5 (concentration giving 1.5-fold activation) lay in the range of 1 to 25 µM and the Emax was at most 200%.

For the compound `Cc1ccnc(NC(=O)N2CCCOc3ccc(-c4cccc(Cl)c4)nc32)c1` [Compound 763], the EC1.5 (concentration giving 1.5-fold activation) lay within 1 to 25 µM and the Emax is above 200%.

As for `O=C(Nc1ccncn1)N1CCCCc2ccc(-c3cccc(C(F)(F)F)c3)nc21` [Compound 815], the EC1.5 (concentration giving 1.5-fold activation) was in the range of 1 to 25 µM and the Emax was above 200%.

As to `O=C(Nc1ccncc1)N1CCC(F)(F)c2ccc(-c3cccc(C(F)(F)F)c3)nc21` [Compound 743, 4,4-difluoro-N-(pyridin-4-yl)-7-(3-(trifluoromethyl)phenyl)-3,4-dihydro-1,8-naphthyridine-1(2H)-carboxamide], the EC1.5 (concentration giving 1.5-fold activation) lay in the range of 1 to 25 µM and the Emax is above 200%.

Regarding `Cc1cc(OCC(O)CO)nc(NC(=O)N2CCCOc3ccc(-c4cccc(Cl)c4)nc32)n1` (stereo not shown) [Compound 859], the EC1.5 (concentration giving 1.5-fold activation) lay within 1 to 25 µM and the Emax is above 200%.

`Cc1csc(NC(=O)N2CCCOc3ccc(-c4cccc(N5CCCC5)c4)nc32)n1` [Compound 628]: the Emax is at most 200% and the EC1.5 result is “B (EC1.5 1-25 μM)”.

Regarding `O=C(Nc1ccnc(OC[C@H](O)CO)n1)N1CCOc2ccc(-c3cccc(C(F)(F)F)c3)nc21` [Compound 731], the EC1.5 (concentration giving 1.5-fold activation) was above 25 µM and the Emax was at most 200%.

For the compound `Cc1cc(NC(=O)N2CCOc3ccc(-c4cc(C)nn4C)nc32)cc(C)n1` [Compound 632], the Emax is above 200% and the EC1.5 entry was “B (EC1.5 1-25 μM)”.

As for `O=C1CCN(C(=O)Nc2ccncc2)c2nc(-c3cccc(C(F)(F)F)c3)ccc21` [Compound 719, 4-oxo-N-(pyridin-4-yl)-7-(3-(trifluoromethyl)phenyl)-3,4-dihydro-1,8-naphthyridine-1(2H)-carboxamide], the EC1.5 (concentration giving 1.5-fold activation) was 1 to 25 µM and the Emax was above 200%.

For `O=C(Nc1ccncn1)N1CCOc2c(N3CCOCC3)nc(-c3cccc(F)c3)nc21` [Compound 758], the EC1.5 (concentration giving 1.5-fold activation) was above 25 µM and the Emax is at most 200%.

In the case of `O=C(Nc1cccc(OC[C@H](O)CO)n1)N1CCCc2ccc(-c3cccc(F)c3)nc21` [Compound 679], the Emax is above 200% and the EC1.5 entry is “A (EC1.5<1.0 μM)”.

In the case of `Cc1cnccc1NC(=O)N1CCOc2ccc(-c3cccc(C(F)(F)F)c3)nc21` [Compound 564], the Emax is at most 200% and the EC1.5 entry is “B (EC1.5 1-25 μM)”.

Take `Cc1cnc(CNC(=O)N2CCOc3ccc(-c4cccc(C(F)(F)F)c4)nc32)cn1` [Compound 504]: the Emax is at most 200% and the EC1.5 result is given as “C (EC1.5>25 μM)”.

As for `O=C(Nc1cncnc1)N1CCC(F)(F)c2ccc(-c3cccc(C(F)(F)F)c3)nc21` [Compound 753], the EC1.5 (concentration giving 1.5-fold activation) fell in the range of 1 to 25 µM and the Emax is above 200%.

`CCN1CCCN(C(=O)Nc2cccc(C)n2)c2nc(-c3cccc(Cl)c3)ccc21` [Compound 797]: the EC1.5 (concentration giving 1.5-fold activation) is above 25 µM and the Emax is at most 200%.

As for `Cc1cc(C)nc(NC(=O)N2CCCOc3ccc(-c4cccc(Cl)c4)nc32)c1` [Compound 857], the EC1.5 (concentration giving 1.5-fold activation) was above 25 µM and the Emax was at most 200%.

With `O=C1CCCN(C(=O)Nc2ccccn2)c2nc(-c3cccc(C(F)(F)F)c3)ccc21` [Compound 819], the EC1.5 (concentration giving 1.5-fold activation) is below 1 µM and the Emax is above 200%.

Regarding `CC1(C)CN(C(=O)Nc2ccccn2)c2nc(-c3cccc(F)c3)ccc2O1` [Compound 760], the EC1.5 (concentration giving 1.5-fold activation) is 1 to 25 µM and the Emax was above 200%.

As to `O=C(Nc1ccncc1)N1CCOc2ccc(-c3cccc(Cl)c3)nc21` [Compound 541, 6-(3-chlorophenyl)-N-(pyridin-4-yl)-2H-pyrido[3,2-b][1,4]oxazine-4(3H)-carboxamide], the Emax is above 200% and the EC1.5 result is “A (EC1.5<1.0 μM)”.

Take `O=C(Nc1cccc(OCC(O)CO)n1)N1CCOc2ncc(-c3cccc(C(F)(F)F)c3)nc21` (stereo not shown) [Compound 742]: the EC1.5 (concentration giving 1.5-fold activation) was below 1 µM and the Emax was above 200%.

Consider `O=C(Nc1ccc(F)cn1)N1CCCC(F)(F)c2ccc(-c3cccc(Cl)c3)nc21` [Compound 798], for which the EC1.5 (concentration giving 1.5-fold activation) was above 25 µM and the Emax was at most 200%.

For `O=C(Nc1ccncc1)N1CCOc2c(N3CCNCC3)nc(-c3cccc(F)c3)nc21` [Compound 751], the “% FOLD ACT. (percent maximum fold activation)” value is listed as “B (Fold Activation≦200%)” and the EC1.5 (concentration giving 1.5-fold activation) was in the range of 1 to 25 µM.

On to `Cc1nc(NC(=O)N2CCCOc3ccc(-c4cccc(Cl)c4)nc32)sc1C` [Compound 703], for which the EC1.5 (concentration giving 1.5-fold activation) is below 1 µM and the Emax is above 200%.

For `Cc1cncc(NC(=O)N2CCCOc3ccc(-c4cccc(C(F)(F)F)c4)nc32)c1` [Compound 576], the Emax was above 200% and the EC1.5 result is recorded as “B (EC1.5 1-25 μM)”.

Consider `O=C(Nc1ccncc1)N1CCCc2ccc(-c3cccc(F)c3)nc21` [Compound 648], for which the Emax was above 200% and the EC1.5 entry was “A (EC1.5<1.0 μM)”.

As for `CC1(C)CCN(C(=O)Nc2cncnc2)c2nc(-c3cccc(C(F)(F)F)c3)ccc21` [Compound 835], the EC1.5 (concentration giving 1.5-fold activation) lay within 1 to 25 µM and the Emax is above 200%.

Turning to `Cn1cc(NC(=O)N2CCCOc3ccc(-c4cccc(Cl)c4)nc32)cn1` [Compound 708], the EC1.5 (concentration giving 1.5-fold activation) was 1 to 25 µM and the Emax is above 200%.

As to `CC1(C)CC(NC(=O)N2CCOc3ccc(-c4cccc(C(F)(F)F)c4)nc32)CC(C)(C)N1` [Compound 634], the Emax was at most 200% and the EC1.5 entry is listed as “C (EC1.5>25 μM)”.

`O=C(Nc1ccnc(N2CCC2)c1)N1CCCOc2ccc(-c3cccc(C(F)(F)F)c3)nc21` [Compound 579]: the Emax is above 200% and the EC1.5 result is recorded as “A (EC1.5<1.0 μM)”.

As for `CN1C(=O)CN(C(=O)Nc2nccs2)c2nc(-c3cccc(C(F)(F)F)c3)ccc21` [Compound 520, 1-methyl-2-oxo-N-(thiazol-2-yl)-6-(3-(trifluoromethyl)phenyl)-2,3-dihydropyrido[2,3-b]pyrazine-4(1H)-carboxamide], the Emax is at most 200% and the EC1.5 entry is recorded as “B (EC1.5 1-25 μM)”.

As to `O=C(Nc1ccncn1)N1CCCCc2ccc(-c3cccc(Cl)c3)nc21` [Compound 755], the EC1.5 (concentration giving 1.5-fold activation) was 1 to 25 µM and the Emax is above 200%.
